Assay results reported in patent US20040057955A1, “Methods of inhibition of stenosis and/or sclerosis of the aortic valve” (priority 2003, published 2004).

Key:
Assay type in all cases: in vivo, human
[1] = test system: patients with mild to moderate aortic stenosis; experiment: Clinical follow up (vital signs, symptoms) in ramipril pilot study; conditions: for HR sitting / HR supine: in bpm (unit assumed); for DBP supine / SBP supine: in mmHg
Protocol: (§1) Clinical Protocol: This pilot study enrolled 8 patients with mild to moderate aortic stenosis, normal left ventricular (LV) function and no history of coronary artery disease. […] Patients then were placed on the ACE inhibitor ramipril, 2.5 mg qd for 2 weeks followed by up-titration at 2 week intervals to 2.5 mg bid, 5 mg bid and 7.5 mg bid. The study lasted 8 weeks. Vital signs were repeated weekly, chemistry panels every 2 weeks and echocardiograms every 4 weeks.

[2] = test system: patients with mild to moderate aortic stenosis; experiment: Lab measures (chemistry panel) in ramipril pilot study
Protocol: as §1

[3] = test system: patients with mild to moderate aortic stenosis; experiment: Echo measures (echocardiogram) in ramipril pilot study
Protocol: as §1

[4] = Week 1, ramipril dose 2.5 × 1, n = 8, mean±SD
[5] = Week 1, ramipril dose 2.5 × 1, n = 8
[6] = Week 2, ramipril dose 2.5 × 1, n = 8, mean±SD
[7] = Week 2, ramipril dose 2.5 × 1, n = 8
[8] = Week 3, ramipril dose 2.5 × 2, n = 8, mean±SD
[9] = Week 3, ramipril dose 2.5 × 2, n = 8
[10] = Week 4, ramipril dose 2.5 × 2, n = 8, mean±SD
[11] = Week 4, ramipril dose 2.5 × 2, n = 8
[12] = Week 5, ramipril dose 5 × 2, n = 8, mean±SD
[13] = Week 5, ramipril dose 5 × 2, n = 8
[14] = Week 6, ramipril dose 5 × 2, n = 8, mean±SD
[15] = Week 6, ramipril dose 5 × 2, n = 8
[16] = Week 7, ramipril dose 7.5 × 2, n = 8, mean±SD
[17] = Week 7, ramipril dose 7.5 × 2, n = 8
[18] = Week 8 (final), ramipril dose 7.5 × 2, n = 8, mean±SD
[19] = Week 8 (final), ramipril dose 7.5 × 2, n = 8, mean±SD, listed as Ramipril
[20] = Week 8, ramipril dose 7.5 × 2, n = 8
[21] = count among n = 8, Week 1, ramipril dose 2.5 × 1
[22] = count among n = 8, Week 2, ramipril dose 2.5 × 1
[23] = count among n = 8, Week 3, ramipril dose 2.5 × 2
[24] = count among n = 8, Week 4, ramipril dose 2.5 × 2
[25] = count among n = 8, Week 5, ramipril dose 5 × 2
[26] = count among n = 8, Week 6, ramipril dose 5 × 2
[27] = count among n = 8, Week 7, ramipril dose 7.5 × 2
[28] = count among n = 8, Week 8, ramipril dose 7.5 × 2

Creatinine ([2]; Week 1, n = 8, mean±SD): 1.1 ± 0.3 mg/dL
Glucose ([2]; Week 1, n = 8, mean±SD): 97 ± 29 mg/dL
Potassium ([2]; Week 1, n = 8, mean±SD): 4.3 ± 0.3 mEq/L
Creatinine ([2]; Week 3, n = 8, mean±SD): 1.2 ± 0.4 mg/dL
Glucose ([2]; Week 3, n = 8, mean±SD): 96 ± 15 mg/dL
Potassium ([2]; Week 3, n = 8, mean±SD): 4.4 ± 0.4 mEq/L
Creatinine ([2]; Week 5, n = 8, mean±SD): 1.1 ± 0.3 mg/dL
Glucose ([2]; Week 5, n = 8, mean±SD): 91 ± 18 mg/dL
Potassium ([2]; Week 5, n = 8, mean±SD): 4.3 ± 0.5 mEq/L
Creatinine ([2]; Week 7, n = 8, mean±SD): 1.1 ± 0.3 mg/dL
Glucose ([2]; Week 7, n = 8, mean±SD): 91 ± 19 mg/dL
Potassium ([2]; Week 7, n = 8, mean±SD): 4.4 ± 0.5 mEq/L
Creatinine ([2]; final measurement, mean±SD): 1.1 ± 0.3 mg/dL
Glucose ([2]; final measurement, mean±SD): 91 ± 18 mg/dL
Potassium ([2]; final measurement, mean±SD): 4.3 ± 0.5 mEq/L
AS-Jet (aortic stenosis jet velocity) ([3]; Week4, n = 8, mean±SD): 2.8 ± 0.2 m/sec
Cardiac output ([3]; Week4, n = 8, mean±SD): 5.9 ± 1.5 L/min
LVEF ([3]; Week4, n = 8, mean±SD): 73 ± 4%
LVOT-velocity (left ventricular outflow tract velocity) ([3]; Week4, n = 8, mean±SD): 1.1 ± 0.1 m/sec
AS-Jet (aortic stenosis jet velocity) ([3]; Week8 (final), n = 8, mean±SD): 2.8±0.3 m/sec
Cardiac output ([3]; Week8 (final), n = 8, mean±SD): 5.7 ± 1.4 L/min
LVEF ([3]; Week8 (final), n = 8, mean±SD): 71±7%
LVOT-velocity (left ventricular outflow tract velocity) ([3]; Week8 (final), n = 8, mean±SD): 1.0±0.2 m/sec
Compound: CCOC(=O)[C@H](CCc1ccccc1)N[C@@H](C)C(=O)N1[C@H](C(=O)O)C[C@@H]2CCC[C@@H]21 [ramipril]
DBP sitting [1, 4]: 67 ± 9 mmHg
SBP sitting [1, 4]: 109 ± 17 mmHg
HR sitting [1, 5]: 60 ± 9
HR supine [1, 5]: 58 ± 5
DBP supine [1, 5]: 62 ± 5
SBP supine [1, 5]: 106 ± 15
DBP sitting [1, 6]: 65 ± 8 mmHg
SBP sitting [1, 6]: 113 ± 16 mmHg
HR sitting [1, 7]: 61 ± 8
HR supine [1, 7]: 63 ± 6
DBP supine [1, 7]: 60 ± 9
SBP supine [1, 7]: 110 ± 12
DBP sitting [1, 8]: 65 ± 8 mmHg
SBP sitting [1, 8]: 111 ± 15 mmHg
HR sitting [1, 9]: 62 ± 8
HR supine [1, 9]: 62 ± 11
DBP supine [1, 9]: 60 ± 7
SBP supine [1, 9]: 107 ± 14
DBP sitting [1, 10]: 64 ± 5 mmHg
SBP sitting [1, 10]: 112 ± 16 mmHg
HR sitting [1, 11]: 65 ± 7
HR supine [1, 11]: 64 ± 7
DBP supine [1, 11]: 64 ± 8
SBP supine [1, 11]: 111 ± 14
DBP sitting [1, 12]: 67 ± 9 mmHg
SBP sitting [1, 12]: 116 ± 17 mmHg
HR sitting [1, 13]: 62 ± 6
HR supine [1, 13]: 61 ± 7
DBP supine [1, 13]: 69 ± 10
SBP supine [1, 13]: 116 ± 17
DBP sitting [1, 14]: 65 ± 4 mmHg
SBP sitting [1, 14]: 118 ± 20 mmHg
HR sitting [1, 15]: 61 ± 8
HR supine [1, 15]: 61 ± 5
DBP supine [1, 15]: 65 ± 6
SBP supine [1, 15]: 114 ± 20
DBP sitting [1, 16]: 70 ± 10 mmHg
SBP sitting [1, 16]: 121 ± 13 mmHg
HR sitting [1, 17]: 61 ± 4
HR supine [1, 17]: 61 ± 6
DBP supine [1, 17]: 72 ± 6
SBP supine [1, 17]: 121 ± 13
DBP sitting [1, 18]: 65±10 mmHg
SBP sitting [1, 18]: 114±14 mmHg
DBP sitting [1, 19]: 65 ± 10 mmHg
SBP sitting [1, 19]: 114 ± 14 mmHg
HR sitting ([1]; Week 8 (final), ramipril dose 7.5 × 2, n = 8): 62±3
HR sitting ([1]; Week 8 (final), ramipril dose 7.5 × 2, n = 8, listed as Ramipril): 62 ± 3
HR supine [1, 20]: 62 ± 3
DBP supine [1, 20]: 63 ± 6
SBP supine [1, 20]: 120 ± 15
Cough [1, 21]: 0
Ghest pain [1, 21]: 0
Hyper-sensitivity [1, 21]: 0
Light-headedness [1, 21]: 0
Cough [1, 22]: 0
Ghest pain [1, 22]: 0
Hyper-sensitivity [1, 22]: 0
Light-headedness [1, 22]: 0
Cough [1, 23]: 0
Ghest pain [1, 23]: 0
Hyper-sensitivity [1, 23]: 0
Light-headedness [1, 23]: 0
Cough [1, 24]: 0
Ghest pain [1, 24]: 0
Hyper-sensitivity [1, 24]: 0
Light-headedness [1, 24]: 0
Cough [1, 25]: 0
Ghest pain [1, 25]: 0
Hyper-sensitivity [1, 25]: 0
Light-headedness [1, 25]: 0
Cough [1, 26]: 2
Ghest pain [1, 26]: 1
Hyper-sensitivity [1, 26]: 0
Light-headedness [1, 26]: 0
Cough [1, 27]: 0
Ghest pain [1, 27]: 0
Hyper-sensitivity [1, 27]: 0
Light-headedness [1, 27]: 0
Cough [1, 28]: 1
Ghest pain [1, 28]: 1
Hyper-sensitivity [1, 28]: 0
Light-headedness [1, 28]: 1
